From ChEMBL document CHEMBL1201862, “PubChem BioAssay data set” (2004)
Activity calls are given as the source filed them.

Experiments:
[1] = CEM21 lymphoblast cell cytotoxicity, dose response, cytotoxicity control for viral fusion inhibitor project, CellTiter-Glo luminescence, cherry-picked (AID 652042); type: functional, cell-based;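 further: potency for signal decrease meaning cytotoxicity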
[2] = off-target signal loss in HeLa-CEM21 co-culture – HeLa F-luc CTL cells, cherry-picked, counter-screen for HIV-1 Env fusion inhibitor project, dose response (AID 652040); type: functional, cell-based;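 further: potency for signal decrease marking cytotoxic or nonspecific inhibition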
[3] = inhibitors of HIV Env-driven cell fusion, dose response, cherry-pick (AID 652057); type: functional, cell-based
[4] = NIH:OVCAR-3 ovarian cancer cell cytotoxicity, dose response, PAX8 inhibitor project, plate reader, dry powder samples (AID 743044); type: functional, cell-based
[5] = IGROV1 ovarian cancer cell cytotoxicity, dose response, PAX8 inhibitor project, plate reader, dry powder samples (AID 743043); type: functional, cell-based; conditions: IGROV-1
Paired box protein Pax-8 = Paired box protein Pax-8 (Homo sapiens, UniProt Q06710); test: inhibitors of PAX8-driven TPO luciferase reporter, dose response, RMG-I cells, cherry-pick (AID 687027); type: functional, cell-based;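 further: luciferase reporter driven by Pax8 target thyroperoxidase promoter measured by SteadyGlo luminescence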
[6] = cytotoxicity in OVCAR8 ovarian cancer cells, dose response, PAX8 project, cell-based, plate reader, dry powder samples (AID 743197); type: functional; conditions: OVCAR-8
[7] = A2780 ovarian cancer cell cytotoxicity, dose response, cytotoxicity control, plate reader, dry powder samples (AID 743046); type: functional, cell-based
[8] = HEK293T cytotoxicity, dose response, cytotoxicity control for miR-122 modulator project, cell-based, activator set, cherry-pick (AID 720690); type: functional;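 further: HEK293T human cells scored for general mammalian cytotoxicity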
[9] = biological target: Arf-GAP with SH3 domain, ANK repeat and PH domain-containing protein 1 (Homo sapiens, UniProt Q9ULH1); type: functional;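 further: biochemical fluorescence polarization dose–response screen measuring inhibition of ASAP1; ASAP1 GAP domain stimulating GTP hydrolysis by truncated human ARF1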
INS1 = test: beta cell apoptosis inhibitors, cytokine rescue, dose response, luminescence, retest (AID 449756); type: functional, cell-based; conditions: Rattus norvegicus;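 further: cell death triggered by IL-1 beta plus TNF-alpha plus IFN-gamma mixture; protective hits raise ATP signal compared with cytokine alone wells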
[10] = inhibitors of intracellular T. cruzi replication, confirmation, NIH3T3 host cells, beta-gal luminescence (AID 2044); type: functional, cell-based;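 further: intracellular parasites grown in NIH/3T3 mouse fibroblasts as host cells; luminescent beta-galactosidase reporter signal from transgenic T. cruzi replicating inside host cells; inhibitors lower the luminescence signal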
[11] = Luminescence Cell-Based Dose Retest to Confirm Inhibitors of Cancer Stem Cells. [Related pubchem assays (depositor defined):AID2717, AID2721]; type: functional; conditions: Homo sapiens
[12] = cytotoxicity toward NIH3T3 fibroblasts, dose response, counter-screen, cell-based, ATP luminescence, mouse fibroblasts (AID 2010); type: functional;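 further: cells exposed to compound for about 90 hours before reading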
[13] = biological target: T1, Ubiquitin-conjugating enzyme E2 N (Homo sapiens, UniProt P61088); type: functional;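 further: Dose-response confirmation in a TR-FRET assay detecting UBC13-driven polyubiquitin chain formation, inhibition measured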
T1 sequence (P61088 whole entry): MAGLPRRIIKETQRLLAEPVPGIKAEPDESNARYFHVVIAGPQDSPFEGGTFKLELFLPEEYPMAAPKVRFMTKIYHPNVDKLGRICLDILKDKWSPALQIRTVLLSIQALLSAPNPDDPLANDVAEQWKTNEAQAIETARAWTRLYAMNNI

[14] = T. cruzi growth inhibition in host cells, dose response, cell-based, plate reader, dry powder, set 2 (AID 652275); type: functional
[15] = biological target: T2, RNA-binding protein pos-1 (Caenorhabditis elegans, UniProt G5EF15); test: inhibitors of POS-1/mex-3 RNA binding, dose response, biochemical, fluorescence polarization (AID 1964);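 further: purified POS-1 fused to maltose binding protein made in E. coli; potency of compounds blocking POS-1 binding to fluorescent RNA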
T2 sequence (G5EF15 whole entry): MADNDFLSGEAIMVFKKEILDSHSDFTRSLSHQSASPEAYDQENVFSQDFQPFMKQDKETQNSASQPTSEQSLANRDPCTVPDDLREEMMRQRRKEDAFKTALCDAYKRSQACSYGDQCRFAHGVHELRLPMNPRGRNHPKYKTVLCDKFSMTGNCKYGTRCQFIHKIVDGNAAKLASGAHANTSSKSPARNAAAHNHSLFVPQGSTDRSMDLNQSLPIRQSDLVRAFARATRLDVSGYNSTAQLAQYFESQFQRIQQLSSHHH

[16] = biological target: T3, Small ubiquitin-related modifier 1 (Homo sapiens, UniProt P63165); test: inhibitors of SUMO1 peptide binding, dose response, biochemical, fluorescence polarization, uHTS hits (AID 624382); type: functional; conditions: read-out: IC50_Mean
Caspase-6 = biological target: T4, Caspase-6 (Homo sapiens, UniProt P55212); test: human caspase-6 inhibitors, dose response, biochemical, VEID-R110 fluorescence, cherry-pick (AID 720632)
T4 sequence (P55212 whole entry): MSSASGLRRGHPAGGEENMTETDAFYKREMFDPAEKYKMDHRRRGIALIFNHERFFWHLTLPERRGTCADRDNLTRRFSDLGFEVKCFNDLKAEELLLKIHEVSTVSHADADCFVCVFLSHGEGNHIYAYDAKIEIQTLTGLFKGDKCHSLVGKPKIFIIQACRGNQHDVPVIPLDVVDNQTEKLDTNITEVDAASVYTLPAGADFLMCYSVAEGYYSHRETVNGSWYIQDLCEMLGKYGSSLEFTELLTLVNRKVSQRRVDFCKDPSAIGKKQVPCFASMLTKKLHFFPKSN

[17] = biological target: T5, Zinc finger protein mex-5 (Caenorhabditis elegans, UniProt Q9XUB2); test: MEX-5/TCR-2 RNA interaction inhibitors, dose response, biochemical, C. elegans, fluorescence polarization (AID 1960)
T5 sequence (Q9XUB2 whole entry): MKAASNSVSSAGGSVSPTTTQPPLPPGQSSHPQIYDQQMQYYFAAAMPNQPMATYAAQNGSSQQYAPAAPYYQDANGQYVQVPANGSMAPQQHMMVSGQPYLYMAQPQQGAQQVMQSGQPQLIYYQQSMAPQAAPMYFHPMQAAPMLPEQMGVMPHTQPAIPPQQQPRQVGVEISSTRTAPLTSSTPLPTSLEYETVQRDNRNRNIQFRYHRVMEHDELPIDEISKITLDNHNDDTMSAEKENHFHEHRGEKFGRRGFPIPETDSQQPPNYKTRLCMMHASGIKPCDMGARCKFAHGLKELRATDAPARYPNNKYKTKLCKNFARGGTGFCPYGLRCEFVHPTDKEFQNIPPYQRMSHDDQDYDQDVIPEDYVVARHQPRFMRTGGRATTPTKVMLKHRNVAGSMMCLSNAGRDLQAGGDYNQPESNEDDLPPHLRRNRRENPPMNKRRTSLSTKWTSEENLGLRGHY

Large T antigen = Large T antigen (Simian virus 40, UniProt P03070); type: functional, Betapolyomavirus macacae;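 further: Confirmatory-stage PubChem screen for compounds that inhibit SV40 T antigen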
[18] = biological target: T3, Small ubiquitin-related modifier 1; test: inhibitors of SUMO1 partner interactions, dose response, biochemical, FRET (AID 624383); type: functional; conditions: read-out: IC50_Mean
[19] = biological target: T6, Long-chain-fatty-acid--AMP ligase FadD28 (Mycobacterium tuberculosis, UniProt P9WQ59); test: Fluorescence polarization aasay to screen for inhibitors that compete for the binding of FadD28 to a bisubstrate Measured in Biochemical System Using Plate Reader - 2147-01_Inhibitor_Dose_CherryPick_Activity.; type: functional, Mycobacterium tuberculosis H37Rv
T6 sequence (P9WQ59 whole entry): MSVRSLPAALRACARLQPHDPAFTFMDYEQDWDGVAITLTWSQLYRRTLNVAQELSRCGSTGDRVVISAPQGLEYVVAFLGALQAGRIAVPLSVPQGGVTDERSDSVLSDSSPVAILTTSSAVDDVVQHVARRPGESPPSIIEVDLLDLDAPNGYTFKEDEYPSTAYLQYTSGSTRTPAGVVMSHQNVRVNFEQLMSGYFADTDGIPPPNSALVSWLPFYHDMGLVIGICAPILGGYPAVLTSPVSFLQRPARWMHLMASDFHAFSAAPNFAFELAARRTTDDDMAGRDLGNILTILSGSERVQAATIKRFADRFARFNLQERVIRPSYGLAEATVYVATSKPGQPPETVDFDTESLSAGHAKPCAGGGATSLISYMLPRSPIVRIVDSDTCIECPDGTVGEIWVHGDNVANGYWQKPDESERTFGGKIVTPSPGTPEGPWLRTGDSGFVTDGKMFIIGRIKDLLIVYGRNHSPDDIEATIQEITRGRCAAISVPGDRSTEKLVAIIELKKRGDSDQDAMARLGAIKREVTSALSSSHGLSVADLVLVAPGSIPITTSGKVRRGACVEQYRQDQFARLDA

[20] = non-specific cell cytotoxicity, dose response, cytotoxicity control for PAX8 inhibitor project, plate reader, dry powder samples (AID 743021); type: functional, cell-based
Beta-galactosidase = Beta-galactosidase (Escherichia coli, UniProt Q8VNN2); test: Dose response counterscreen for EBI2 assay utilizing the enzyme, b-galactosidase.; type: functional
[21] = HEK293T cytotoxicity, dose response, cytotoxicity control for miR-122 modulator project, cell-based, inhibitor set, cherry-pick, set 2 (AID 720697); type: functional

Sequence of Paired box protein Pax-8 (Q06710 whole entry): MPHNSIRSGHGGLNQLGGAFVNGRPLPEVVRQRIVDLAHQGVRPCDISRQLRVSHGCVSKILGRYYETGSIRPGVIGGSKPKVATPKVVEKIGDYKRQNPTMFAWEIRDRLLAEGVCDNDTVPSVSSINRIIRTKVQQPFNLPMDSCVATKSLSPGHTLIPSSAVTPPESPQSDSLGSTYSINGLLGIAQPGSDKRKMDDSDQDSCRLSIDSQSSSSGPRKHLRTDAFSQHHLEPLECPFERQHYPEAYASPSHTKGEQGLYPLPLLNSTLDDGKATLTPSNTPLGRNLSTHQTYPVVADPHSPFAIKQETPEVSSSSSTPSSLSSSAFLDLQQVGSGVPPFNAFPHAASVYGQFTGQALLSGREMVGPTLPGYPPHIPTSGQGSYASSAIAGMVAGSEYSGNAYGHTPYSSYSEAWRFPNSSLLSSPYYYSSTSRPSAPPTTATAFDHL
T3 sequence (P63165 whole entry): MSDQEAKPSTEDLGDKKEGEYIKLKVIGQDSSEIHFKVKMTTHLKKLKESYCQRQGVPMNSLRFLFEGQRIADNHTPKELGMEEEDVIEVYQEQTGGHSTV
Sequence of Beta-galactosidase (Q8VNN2 whole entry): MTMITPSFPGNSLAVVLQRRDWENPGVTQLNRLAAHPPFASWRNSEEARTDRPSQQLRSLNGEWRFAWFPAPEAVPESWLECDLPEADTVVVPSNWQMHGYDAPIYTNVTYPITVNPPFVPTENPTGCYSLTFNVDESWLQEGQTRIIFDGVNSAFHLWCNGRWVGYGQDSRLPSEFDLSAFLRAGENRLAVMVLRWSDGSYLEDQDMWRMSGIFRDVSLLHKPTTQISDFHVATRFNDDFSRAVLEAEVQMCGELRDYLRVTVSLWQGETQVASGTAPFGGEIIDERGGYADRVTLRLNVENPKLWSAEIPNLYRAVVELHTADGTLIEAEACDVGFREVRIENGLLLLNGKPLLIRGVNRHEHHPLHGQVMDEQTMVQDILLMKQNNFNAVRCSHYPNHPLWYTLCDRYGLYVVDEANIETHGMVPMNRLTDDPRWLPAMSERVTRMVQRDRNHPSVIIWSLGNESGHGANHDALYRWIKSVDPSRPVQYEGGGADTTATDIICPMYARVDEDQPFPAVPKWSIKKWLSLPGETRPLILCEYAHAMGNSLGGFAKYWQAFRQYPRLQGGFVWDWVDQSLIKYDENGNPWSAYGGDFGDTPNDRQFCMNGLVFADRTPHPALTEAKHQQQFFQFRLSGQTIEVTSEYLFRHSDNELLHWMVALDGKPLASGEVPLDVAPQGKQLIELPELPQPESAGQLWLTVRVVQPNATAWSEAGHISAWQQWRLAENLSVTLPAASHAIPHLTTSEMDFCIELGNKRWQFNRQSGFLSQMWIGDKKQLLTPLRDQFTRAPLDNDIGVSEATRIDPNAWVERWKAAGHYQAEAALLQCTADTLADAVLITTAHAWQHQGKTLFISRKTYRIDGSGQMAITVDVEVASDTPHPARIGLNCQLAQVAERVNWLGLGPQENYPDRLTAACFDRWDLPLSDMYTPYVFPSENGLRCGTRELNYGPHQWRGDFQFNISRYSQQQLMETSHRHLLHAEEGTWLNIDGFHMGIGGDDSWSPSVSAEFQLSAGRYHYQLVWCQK
Sequence of Arf-GAP with SH3 domain, ANK repeat and PH domain-containing protein 1 (Q9ULH1 whole entry, the tested form may be a part): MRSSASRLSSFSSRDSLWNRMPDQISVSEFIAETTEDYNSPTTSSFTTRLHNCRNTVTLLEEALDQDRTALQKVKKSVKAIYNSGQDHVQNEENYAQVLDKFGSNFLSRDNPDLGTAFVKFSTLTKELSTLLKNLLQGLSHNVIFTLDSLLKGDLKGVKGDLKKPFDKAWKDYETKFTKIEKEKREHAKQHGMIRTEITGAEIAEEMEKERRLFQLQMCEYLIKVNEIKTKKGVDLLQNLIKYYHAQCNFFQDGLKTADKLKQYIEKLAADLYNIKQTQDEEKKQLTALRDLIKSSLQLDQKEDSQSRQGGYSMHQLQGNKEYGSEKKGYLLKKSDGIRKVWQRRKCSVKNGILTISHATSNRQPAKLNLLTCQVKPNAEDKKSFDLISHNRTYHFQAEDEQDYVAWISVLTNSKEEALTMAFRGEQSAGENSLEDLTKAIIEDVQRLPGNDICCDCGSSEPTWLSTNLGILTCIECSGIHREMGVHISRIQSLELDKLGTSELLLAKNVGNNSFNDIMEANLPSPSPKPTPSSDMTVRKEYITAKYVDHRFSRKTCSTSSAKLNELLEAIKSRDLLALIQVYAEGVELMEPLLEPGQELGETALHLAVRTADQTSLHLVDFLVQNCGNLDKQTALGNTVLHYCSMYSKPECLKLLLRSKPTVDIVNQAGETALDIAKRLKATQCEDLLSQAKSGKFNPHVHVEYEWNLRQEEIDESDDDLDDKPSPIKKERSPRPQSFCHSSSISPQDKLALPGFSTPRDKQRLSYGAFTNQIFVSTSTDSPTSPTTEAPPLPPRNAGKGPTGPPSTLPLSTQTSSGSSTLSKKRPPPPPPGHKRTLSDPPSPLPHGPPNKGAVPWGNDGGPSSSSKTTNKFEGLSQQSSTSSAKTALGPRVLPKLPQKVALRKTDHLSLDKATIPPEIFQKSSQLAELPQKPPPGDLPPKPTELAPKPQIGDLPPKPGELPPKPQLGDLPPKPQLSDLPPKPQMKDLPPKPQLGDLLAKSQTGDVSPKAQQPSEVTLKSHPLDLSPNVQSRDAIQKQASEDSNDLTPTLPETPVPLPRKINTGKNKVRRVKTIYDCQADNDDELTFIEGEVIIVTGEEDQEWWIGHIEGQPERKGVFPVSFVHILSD
Sequence of Large T antigen (P03070 whole entry): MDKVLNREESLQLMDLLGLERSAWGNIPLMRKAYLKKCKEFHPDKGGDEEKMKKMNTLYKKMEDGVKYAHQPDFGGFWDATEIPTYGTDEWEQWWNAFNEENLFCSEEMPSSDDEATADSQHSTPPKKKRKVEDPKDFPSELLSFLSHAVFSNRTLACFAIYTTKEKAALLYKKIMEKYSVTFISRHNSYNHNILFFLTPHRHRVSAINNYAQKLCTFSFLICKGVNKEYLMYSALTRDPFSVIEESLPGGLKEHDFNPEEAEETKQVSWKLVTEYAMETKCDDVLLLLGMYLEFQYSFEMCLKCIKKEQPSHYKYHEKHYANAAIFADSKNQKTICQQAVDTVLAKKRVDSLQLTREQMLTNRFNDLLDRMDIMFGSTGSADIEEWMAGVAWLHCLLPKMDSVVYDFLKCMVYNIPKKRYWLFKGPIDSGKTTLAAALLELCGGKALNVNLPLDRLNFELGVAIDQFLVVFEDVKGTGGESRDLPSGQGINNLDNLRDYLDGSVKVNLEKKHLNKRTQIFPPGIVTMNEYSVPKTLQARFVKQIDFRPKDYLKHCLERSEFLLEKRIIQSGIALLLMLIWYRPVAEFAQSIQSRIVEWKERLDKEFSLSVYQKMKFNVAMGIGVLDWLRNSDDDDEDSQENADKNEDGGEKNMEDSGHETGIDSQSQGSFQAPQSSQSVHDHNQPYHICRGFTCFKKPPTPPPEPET

Cc1cc(C(C)(C)C)oc1C(=O)N(CC(=O)NC1CCCC1)Cc1ccc(Cl)cc1
AC50 [1]: 49.5 µM (active)
AC50 [2]: > 70 µM (inactive)
AC50 [3]: 6.45 µM (active)

O=C(C[C@@H]1CC[C@@H]2[C@H](COC[C@@H](O)CN2C(=O)Nc2ccc(Cl)c(Cl)c2)O1)NCc1ccc(Cl)cc1
AC50 [4]: 33.5 µM (active)
AC50 [5]: 33.9 µM (active)
AC50 (Paired box protein Pax-8): 8.87 µM (active)
AC50 [6]: 53.3 µM (active)
AC50 [7]: 60 µM (active)

C[C@@H]1CN([C@@H](C)CO)S(=O)(=O)c2ccc(C#Cc3ccccc3F)cc2O[C@@H]1CN(C)C(=O)c1ccc2c(c1)OCO2
AC50 [4]: 20.5 µM (active)
AC50 [8]: 26.9 µM (active)
AC50 (Paired box protein Pax-8): 13.2 µM (active)
AC50 [6]: > 70 µM (inactive)

OCCNc1nc(Nc2ccc(Cl)c(Cl)c2)nc2ccccc12
IC50 [9]: 55.3 µM (inactive)
AC50 (INS1): 13.4 µM (active)
EC50 [10]: 0.464 µM (active)
AC50 [11]: 2.43 µM (active)
EC50 [12]: > 30 µM (not active)
IC50 [13]: > 20 µM (inactive)

O=C(Cc1ccccn1)N1CCCCN2[C@@H](CO)[C@H](c3ccc(-c4ccccc4)cc3)[C@@H]2C1
AC50 [14]: 0.551 µM (active)

COc1cc(/C=C2\CCc3c2nc2ccccc2c3C(=O)O)cc(OC)c1OC
EC50 [15]: 94 µM (active)
IC50 [16]: > 66.6 µM (inactive)
AC50 (Caspase-6): 6.8 µM (active)
EC50 [17]: 34.8 µM (active)
IC50 (Large T antigen): 35 µM (active)
IC50 [18]: 12.5 µM (active)

COc1cccc(CNC(=O)COc2cc(O)c3c(c2)OC(C)(C)CC3=O)c1
AC50 [19]: 79.7 µM (active)

COc1ccc(C(=O)NCc2ccc(C)cc2)cc1S(=O)(=O)N1CCOCC1
AC50 [19]: 64.8 µM (active)

O=C(Cc1cccnc1)N1CCCCN2[C@H](C1)[C@H](c1ccc(/C=C/c3ccccc3)cc1)[C@@H]2CO
AC50 [4]: 5.01 µM (active)
AC50 (Paired box protein Pax-8): 4.42 µM (active)
AC50 [6]: 41.2 µM (active)
AC50 [20]: 50.6 µM (active)
AC50 [7]: 25.1 µM (active)

CCN1CCN(c2ccc(S(=O)(=O)N3CCOCC3)cc2NC(=O)/C=C/c2ccc(C)cc2)CC1
IC50 (Beta-galactosidase): > 80 µM (inactive)

CO[C@@H]1CN(C)C(=O)c2ccc(NC(C)=O)cc2OC[C@@H](C)N(C(=O)c2ccccc2F)C[C@H]1C
AC50 [21]: 0.147 µM (active)
